Columns and labels:
[1] = cited from earlier work
HUVECs [2] = assay: HUVEC tubulogenesis assay on Matrigel; type: cell-based, human; conditions: up to 7.5 μM
Procedure: Tubulogenesis assays were performed in 15-well micro-slide (ibidi LLC, Verona WI), using growth factor-reduced matrigel (BD Bioscience, Billerica, MA). The matrix was prepared by loading 10 μl of matrigel in each micro-slide well and allowing it to solidify for 30 minutes at 37°C. HUVECs were trypsinized and resuspended at 100,000 cell/ml in EBM +2.5% FBS. 50 μl (5,000 cell) were loaded on top of the solidified matrigel and the preparation was incubated for 20 hours at 37°C in a humidified incubator in a 5% CO2 atmosphere. Bright field images were taken using an inverted microscope at 2.5× magnification, which allowed imaging of the whole well in two pictures that were later merged in Photoshop. Tubular structures were traced and counted using NeuroJ (NIH, USA). In experiments with inhibitor, the inhibitor was added to the cell suspension before loading. Each sample was loaded in triplicate, and each treatment was repeated for reproducibility.

mouse aortic rings = assay: Mouse aortic ring assay (ex vivo sprouting angiogenesis, VEGF-stimulated); conditions: 5 μM, 10 days
Procedure: The preparation of rat collagen and the aortic ring assay were carried out as previously described, [50]. Mice were 4 to 6 week old female C57BL/6, and aortic ring explants were cultured at 37°C in a humidified incubator under a 5% CO2 atmosphere.
Each inhibitor was serially diluted (between 0.25 mM and 7.5 mM) to stocks of 1000× the working concentrations in sterile 100% DMSO in order to achieve an equal final concentration of DMSO (0.1% v/v) in all culture conditions. For the experiments, the compounds were diluted in EBM containing 2.5% FBS, penicillin/streptomycin and 20 ng/ml VEGF165 (R&D Systems, Minneapolis, MN). Each compound was applied from the first day of culture over a 10-day period with medium change every two days. In all experiments, the vehicle (DMSO, 0.1%) was used as control. The sprouting density was derived from counting the number of branches per ring, and the extent of angiogenic sprouting was estimated by measuring the total surface area covered by the vessels.

MCF10A-EYA2 cells = assay: Transwell migration of MCF10A cells over-expressing EYA2; type: cell-based; conditions: 7.5 μM
Procedure: (§1) Human umbilical vein endothelial cells (HUVECs) were purchased from Lonza (Walkersville, MD) and maintained in the endothelial cell growth medium (PromoCell, Heidelberg, Germany), under a 5% CO2 atmosphere. MCF10A cells from ATCC were stably transfected with either pcDNA 3.2/V5-DEST (vector control), V5-EYA2 or V5-EYA2(mut). Transwell migration experiments were performed as previously described.

zebrafish embryos = assay: Analysis of zebrafish vasculature, Tg(kdrl:EGFP) embryos; type: in vivo; conditions: exposure from about 5 hpf, analysis at 28–30 hpf
Procedure: Tg(kdrl:EGFP)^s843 zebrafish line was used for vascular analysis. Embryos were maintained in fish water until the 50% epiboly stage (5.25 hpf) and were transferred into wells of 24-well plate containing the inhibitors in fish water. All incubation was performed at 28.5°C. The analysis for vascular defects was performed at the 28–30 hpf stages, and embryos were imaged using a fluorescence microscope.

HUVECs [3] = assay: HUVEC transwell migration; type: cell-based, human; conditions: 5 μM
Procedure: as §1

PTP1B = target: T1, PTP1B (Homo sapiens, UniProt P18031); assay: pNPP hydrolysis by PTP1B; type: biochemical; conditions: for IC50: substrate pNPP
T1 construct: made in house
T1 sequence (P18031 1-435): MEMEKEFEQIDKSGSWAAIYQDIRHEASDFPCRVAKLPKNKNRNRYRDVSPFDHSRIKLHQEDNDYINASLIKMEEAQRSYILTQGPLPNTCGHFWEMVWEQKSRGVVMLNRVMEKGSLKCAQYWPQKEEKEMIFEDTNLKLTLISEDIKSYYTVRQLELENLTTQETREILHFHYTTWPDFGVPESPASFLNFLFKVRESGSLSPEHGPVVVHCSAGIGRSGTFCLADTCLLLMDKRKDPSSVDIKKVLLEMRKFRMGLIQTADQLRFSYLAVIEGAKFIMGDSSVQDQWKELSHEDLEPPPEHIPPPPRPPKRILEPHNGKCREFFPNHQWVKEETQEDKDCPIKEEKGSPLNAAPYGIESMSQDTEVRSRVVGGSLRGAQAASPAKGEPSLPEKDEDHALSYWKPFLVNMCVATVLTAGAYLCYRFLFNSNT
Procedure: The catalytic domain of human Eyes Absent 2 was similarly sub-cloned as a poly-histidine fusion construct in the vector pDEST-527. Fusion protein was purified by Ni-NTA chromatography and followed by size-exclusion chromatography over a Superdex-75 column. The relative purity of protein samples was determined using SDS-PAGE. PTP1B was purified as described previously.
(§2) Compounds were dissolved in DMSO and diluted as needed. […] Reactions were incubated at 30°C for 30 minutes and quenched with 100 mM EDTA pH 10. IC50 values were then calculated directly from regression curves using PRISM. All reported values are the mean of two independent experiments.

Eya3(ED) = target: T2, Eya3(ED) (Mus musculus, UniProt P97480); assay: pNPP hydrolysis by the catalytic domain of Eya3; type: biochemical; conditions: substrate pNPP 3.4 mM, pH 6, 30°C, 30 minutes
T2 construct: The catalytic domain (ED) of mouse Eyes Absent 3 (Eya3(223–510)) was purified; made in house
T2 sequence (P97480 223-510): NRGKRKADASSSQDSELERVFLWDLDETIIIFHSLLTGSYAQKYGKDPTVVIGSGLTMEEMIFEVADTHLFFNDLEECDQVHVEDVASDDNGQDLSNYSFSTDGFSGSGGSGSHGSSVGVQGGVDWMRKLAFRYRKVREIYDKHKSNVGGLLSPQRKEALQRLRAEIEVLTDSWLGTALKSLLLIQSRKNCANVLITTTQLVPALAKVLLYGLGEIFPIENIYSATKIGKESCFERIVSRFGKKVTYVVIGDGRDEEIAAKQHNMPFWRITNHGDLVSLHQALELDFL
Text: (§3) The catalytic domain (ED) of mouse Eyes Absent 3 (Eya3(223–510)) was purified as described before. Human Eyes Absent 3 isoform 2 (representing the major species identified in human cell lines by mass spectrometry and residues 127–573 of NM_001990, isoform 1) was sub-cloned into pDEST565 to express a poly-histidine- Glutathione-S-transferase (His-GST) tagged fusion protein with a TVMV protease site. The protein was purified by glutathione-S-transferase affinity chromatography followed by TVMV cleavage, Ni-NTA chromatography, and finally size exclusion chromatography.
The NCI Diversity Set II was obtained from the NCI in 96-well trays from the NIH Molecular Libraries Program and stored as 10 mM stocks in DMSO. An initial manual screen was conducted using the previously described p-nitrophenylphosphate assay and mouse Eya3(223–510) in a reaction mixture containing 20 mM MES pH 6, 2 mM MgCl2, 125 μM inhibitor, 3.4 mM para-nitrophenol phosphate (pNPP) and 0.01 μg/µL enzyme.
as §2

human EYA3 = target: T3, human EYA3 (Homo sapiens, UniProt Q99504); assay: pNPP hydrolysis by full-length EYA3; type: biochemical; conditions: full-length human EYA3, substrate pNPP
T3 construct: residues 127–573 of NM_001990, isoform 1; His-GST (poly-histidine, glutathione-S-transferase) with TVMV protease site (cleaved yes); made in house
T3 sequence (Q99504 127-573): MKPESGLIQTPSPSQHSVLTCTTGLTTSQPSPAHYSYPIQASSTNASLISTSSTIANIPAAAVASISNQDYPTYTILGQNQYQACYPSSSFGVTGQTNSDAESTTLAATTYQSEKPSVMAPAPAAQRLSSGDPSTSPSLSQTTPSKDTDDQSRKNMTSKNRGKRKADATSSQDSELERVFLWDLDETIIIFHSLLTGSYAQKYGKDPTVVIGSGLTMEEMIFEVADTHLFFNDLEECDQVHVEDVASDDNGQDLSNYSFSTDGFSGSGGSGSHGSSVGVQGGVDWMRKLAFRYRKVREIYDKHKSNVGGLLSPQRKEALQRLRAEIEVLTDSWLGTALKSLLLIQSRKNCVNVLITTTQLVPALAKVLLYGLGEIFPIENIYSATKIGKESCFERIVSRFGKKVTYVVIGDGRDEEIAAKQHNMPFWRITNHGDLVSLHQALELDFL
Text: as §3, with “chromatography. […]” for “chromatography.”
as §2

Compound	half-life [1] [h]	effect on tubulogenesis, in words (HUVECs [2])	effect on sprouting of aortic rings (mouse aortic rings)	effect on migration of MCF10A(EYA2) cells (MCF10A-EYA2 cells)	effect on the developing vasculature (zebrafish embryos)	effect on HUVEC cell motility (HUVECs [3])	IC50 (PTP1B) [µM]	IC50 (Eya3(ED)) [µM]	IC50 (human EYA3) [µM]	selectivity EYA3 versus PTP1B, in words (PTP1B; pNPP hydrolysis)
CCc1oc2cc(O)ccc2c1C(=O)c1cc(Br)c(O)c(Br)c1 [6-hydroxybenzbromarone]	30	–	–	–	–	–	–	–	–	–
CCCCc1oc2ccccc2c1C(=O)c1ccc(O)cc1 [Compound 1b]	–	effective only at the highest concentrations tested (7.5 μM)	shorter sprouts and significantly lower microvascular density	significantly inhibited cell migration	reduced the number of intersegmental vessels, but were less potent	attenuated HUVEC cell motility	71.4	–	–	–
O=C(c1cc2ccccc2o1)c1coc2ccc(O)cc12 [Compound 1c]	–	–	negligible effect	had no effect on cell motility	no effect on the vasculature	–	11.8	> 150	> 150	preferentially inhibited PTP1B
O=C(c1ccc(F)cc1)c1coc2ccc(O)cc12 [Compound 1d]	–	–	–	–	–	–	> 150	> 150	> 150	–
COc1ccc(C(=O)c2coc3ccc(O)cc23)cc1 [Compound 1e]	–	–	–	–	–	–	> 150	> 150	> 150	–
COc1ccc(OC)c(C(=O)c2coc3ccc(O)cc23)c1 [Compound 1f]	–	–	–	–	–	–	102	> 150	> 150	–
CC(=O)c1c(C)oc2ccc(O)cc12 [Compound 1g]	–	–	–	–	–	–	> 150	> 150	> 150	–
COc1ccc(CC(=O)c2ccc(O)cc2O)cc1 [Compound 1h]	–	–	–	–	–	–	> 150	> 150	> 150	–
CC(=O)c1cc(Br)c(O)c(Br)c1O [Compound 1i]	–	–	–	–	–	–	> 150	> 150	> 150	–
CCCCC(=O)c1ccc(O)cc1 [Compound 1j]	–	–	–	–	–	–	> 150	> 150	> 150	–

From article PMC3335822 (PLoS ONE, 2012)
